{
  "source": "ChEMBL document CHEMBL5113420",
  "about": "“Selective inhibition of histone deacetylase 3 by novel hydrazide based small molecules as therapeutic intervention for the treatment of cancer” (Eur J Med Chem, 2022)",
  "key": {"[1]": {"assay": "Cmax in Wistar rat at 25 mg/kg, iv measured upto 24 hrs by HPLC analysis", "assay_type": "ADME, organism-based", "set-up": "dose 25 mg/kg, time < 24 hrs, route iv", "conditions": "in vivo"}, "[2]": {"assay": "Toxicity in Balb/c mouse implanted with mouse 4T1-luc cells assessed as mortality at 15 to 25 mg/kg, ip", "assay_type": "organism-based", "conditions": "in vivo, dose 15-25 mg/kg"}, "4T1 [3]": {"tested_on": "4T1", "assay": "Cytotoxicity against mouse 4T1 cells assessed as increase in chromosomal condensation at 1.92 uM measured after 48 hrs by acridine orange and DAPI staining based fluorescence microscope assay", "assay_type": "functional, cell-based"}, "4T1 [4]": {"tested_on": "4T1", "assay": "Antitumor activity against mouse 4T1-luc cells Balb/c mouse assessed as reduction in tumor volume at 25 mg/kg, ip measured once 3 days for 21 days (reference value: 49.16 to 1032.50 mm^3)", "assay_type": "functional", "conditions": "time 3 day"}, "[5]": {"assay": "AUCt in Wistar rat at 25 mg/kg, iv measured upto 24 hrs by HPLC analysis", "assay_type": "ADME, organism-based", "set-up": "dose 25 mg/kg, time < 24 hrs, route iv", "conditions": "in vivo"}, "4T1 [6]": {"tested_on": "4T1", "assay": "Induction of apoptosis in mouse 4T1 Luc cells implanted in Balb/c mouse assessed as upregulation of caspase 7 level at 15 to 25 mg/kg incubated for 24 hrs by Western blot analysis", "assay_type": "functional, organism-based", "conditions": "dose 15-25 mg/kg"}, "[7]": {"assay": "Apparent volume of distribution during terminal phase in Wistar rat at 25 mg/kg, ip measured upto 24 hrs by HPLC analysis", "assay_type": "ADME, organism-based", "conditions": "in vivo"}, "4T1 [8]": {"tested_on": "4T1", "assay": "Induction of apoptosis in mouse 4T1 Luc cells implanted in Balb/c mouse assessed as increase in ROS generation at 15 mg/kg by fluorescent microscopy analysis", "assay_type": "functional, organism-based"}, "[9]": {"assay": "AUC (0 to infinity) in Wistar rat at 15 mg/kg, ip measured upto 24 hrs by HPLC analysis", "assay_type": "ADME, organism-based", "set-up": "time < 24 hrs, dose 15 mg/kg, route ip", "conditions": "in vivo"}, "[10]": {"assay": "Toxicity in Balb/c mouse implanted with mouse 4T1 Luc cells assessed as spleen tissue damage at 15 mg/kg by H and E staining", "assay_type": "organism-based", "conditions": "in vivo"}, "[11]": {"assay": "Cmax in Wistar rat at 15 mg/kg, iv measured upto 24 hrs by HPLC analysis", "assay_type": "ADME, organism-based", "set-up": "time < 24 hrs, dose 15 mg/kg, route iv", "conditions": "in vivo"}, "4T1 [12]": {"tested_on": "4T1", "assay": "Antitumor activity against mouse 4T1 Luc cells implanted in Balb/c mouse assessed as reduction in metastasis at 15 to 25 mg/kg measured after 21 days by Kaplan-Meier method", "assay_type": "functional, organism-based", "conditions": "dose 15-25 mg/kg, time 21.0 day"}, "[13]": {"assay": "Tmax in Wistar rat at 25 mg/kg, iv measured upto 24 hrs by HPLC analysis", "assay_type": "ADME, organism-based", "conditions": "in vivo"}, "[14]": {"assay": "MRT in Wistar rat at 15 mg/kg, iv measured upto 24 hrs by HPLC analysis", "assay_type": "ADME, organism-based", "conditions": "in vivo"}, "[15]": {"assay": "AUC (0 to infinity) in Wistar rat at 25 mg/kg, iv measured upto 24 hrs by HPLC analysis", "assay_type": "ADME, organism-based", "set-up": "time < 24 hrs, dose 25 mg/kg, route iv", "conditions": "in vivo"}, "[16]": {"assay": "Half life in Wistar rat at 15 mg/kg, iv measured upto 24 hrs by HPLC analysis", "assay_type": "ADME, organism-based", "conditions": "in vivo"}, "4T1 [17]": {"tested_on": "4T1", "assay": "Antitumor activity against mouse 4T1 Luc cells implanted in Balb/c mouse assessed as increase in fluorescence at 25 mg/kg using luciferin-D as substrate at 100 mg/kg, ip measured on day 10 and 21 by IVIS Lumina III analysis", "assay_type": "functional, organism-based"}, "4T1 [18]": {"tested_on": "4T1", "assay": "Induction of apoptosis in mouse 4T1 Luc cells implanted in Balb/c mouse reduction in CD44 expression at 15 to 25 mg/kg incubated for 24 hrs by Western blot analysis", "assay_type": "functional, organism-based", "conditions": "dose 15-25 mg/kg"}, "[19]": {"assay": "Toxicity in Balb/c mouse implanted with mouse 4T1-luc cells assessed as weight loss at 15 mg/kg, ip", "assay_type": "organism-based", "conditions": "in vivo"}, "4T1 [20]": {"tested_on": "4T1", "assay": "Antitumor activity against mouse 4T1 Luc cells implanted in Balb/c mouse assessed as decrease in Ki-67 in tumor tissue at 15 to 25 mg/kg by immunohistochemical analysis", "assay_type": "functional, organism-based", "conditions": "dose 15-25 mg/kg"}, "[21]": {"assay": "Toxicity in Balb/c mouse implanted with mouse 4T1 Luc cells assessed as heart tissue damage at 15 mg/kg by H and E staining", "assay_type": "organism-based", "conditions": "in vivo"}, "[22]": {"assay": "Half life in Wistar rat at 15 mg/kg, ip measured upto 24 hrs by HPLC analysis", "assay_type": "ADME, organism-based", "conditions": "in vivo"}, "4T1 [23]": {"tested_on": "4T1", "assay": "Induction of apoptosis in mouse 4T1 Luc cells implanted in Balb/c mouse assessed as increase in cytochrome c level at 15 to 25 mg/kg incubated for 24 hrs by Western blot analysis", "assay_type": "functional, organism-based", "conditions": "dose 15-25 mg/kg"}, "[24]": {"assay": "Cmax in Wistar rat at 15 mg/kg, ip measured upto 24 hrs by HPLC analysis", "assay_type": "ADME, organism-based", "set-up": "dose 15 mg/kg, time < 24 hrs, route ip", "conditions": "in vivo"}, "[25]": {"assay": "Apparent volume of distribution during terminal phase in Wistar rat at 15 mg/kg, ip measured upto 24 hrs by HPLC analysis", "assay_type": "ADME, organism-based", "conditions": "in vivo"}, "[26]": {"assay": "AUC (0 to infinity) in Wistar rat at 15 mg/kg, iv measured upto 24 hrs by HPLC analysis", "assay_type": "ADME, organism-based", "set-up": "time < 24 hrs, dose 15 mg/kg, route iv", "conditions": "in vivo"}, "[27]": {"assay": "MRT in Wistar rat at 25 mg/kg, iv measured upto 24 hrs by HPLC analysis", "assay_type": "ADME, organism-based", "conditions": "in vivo"}, "[28]": {"assay": "AUCt in Wistar rat at 15 mg/kg, iv measured upto 24 hrs by HPLC analysis", "assay_type": "ADME, organism-based", "set-up": "time < 24 hrs, dose 15 mg/kg, route iv", "conditions": "in vivo"}, "[29]": {"assay": "Toxicity in Balb/c mouse implanted with mouse 4T1 Luc cells assessed as kidney tissue damage at 15 mg/kg by H and E staining", "assay_type": "organism-based", "conditions": "in vivo"}, "[30]": {"assay": "AUCt in Wistar rat at 15 mg/kg, ip measured upto 24 hrs by HPLC analysis", "assay_type": "ADME, organism-based", "set-up": "time < 24 hrs, dose 15 mg/kg, route ip", "conditions": "in vivo"}, "4T1 [31]": {"tested_on": "4T1", "assay": "Induction of apoptosis in mouse 4T1 Luc cells implanted in Balb/c mouse downregulation of Bcl2 expression at 15 to 25 mg/kg incubated for 24 hrs by Western blot analysis", "assay_type": "functional, organism-based", "conditions": "dose 15-25 mg/kg"}, "4T1 [32]": {"tested_on": "4T1", "assay": "Induction of intracellular ROS generation in mouse 4T1 Luc cells implanted in Balb/c mouse assessed as increase fluorescence intensity at 15 mg/kg measured after 21 days by DCFH-DA probe based fluorescent microscopy analysis", "assay_type": "functional, organism-based", "conditions": "time 21.0 day"}, "Mus musculus": {"tested_on": "Mus musculus", "assay": "Antitumor activity against mouse 4T1 Luc cells implanted in Balb/c mouse assessed as increase in animal survival at 15 mg/kg measured after 21 days", "assay_type": "functional, organism-based", "conditions": "time 21.0 day"}, "[33]": {"assay": "MRT in Wistar rat at 15 mg/kg, ip measured upto 24 hrs by HPLC analysis", "assay_type": "ADME, organism-based", "conditions": "in vivo"}, "4T1 [34]": {"tested_on": "4T1", "assay": "Induction of apoptosis in mouse 4T1 Luc cells implanted in Balb/c mouse assessed as increase in ROS generation at 25 mg/kg by fluorescent microscopy analysis", "assay_type": "functional, organism-based"}, "4T1 [35]": {"tested_on": "4T1", "assay": "Induction of apoptosis in mouse 4T1 Luc cells implanted in Balb/c mouse assessed as upregulation of caspase 3 level at 15 to 25 mg/kg incubated for 24 hrs by Western blot analysis", "assay_type": "functional, organism-based", "conditions": "dose 15-25 mg/kg"}, "[36]": {"assay": "Tmax in Wistar rat at 15 mg/kg, ip measured upto 24 hrs by HPLC analysis", "assay_type": "ADME, organism-based", "conditions": "in vivo"}},
  "note": "Several values for one entry are separate records, joined by “and”; a condition that tells them apart may be missing. Equal entries are not always repeated. Activity calls are given as the source filed them. The rule behind the calls is not given here.",
  "data": [
    {"smiles": "CCCNNC(=O)c1ccc(Nc2ccccc2)cc1", "values": [
      {"measurement": "Cmax", "setting": "[1]", "result": "32100 ng/mL and 120 µM"},
      {"measurement": "Activity", "setting": "[2]", "result": "Non-Toxic"},
      {"measurement": "Activity", "setting": "4T1 [3]", "result": "Active"},
      {"measurement": "Activity", "setting": "4T1 [4]", "result": 51.83, "unit": "mm3"},
      {"measurement": "AUC(0-t) at 24 h", "setting": "[5]", "result": "200000 ng·h/mL and 742 µM·h"},
      {"measurement": "Activity", "setting": "4T1 [6]", "result": "Active"},
      {"measurement": "Vz/F", "setting": "[7]", "result": "3.27 (mg/kg)/(ug/ml) and 2.01 (mg/kg)/(uM)"},
      {"measurement": "Activity", "setting": "4T1 [8]", "result": "Active"},
      {"measurement": "AUC(0-inf)", "setting": "[9]", "result": "29300 ng·h/mL and 109 µM·h"},
      {"measurement": "Activity", "setting": "[10]", "result": "Non-Toxic"},
      {"measurement": "Cmax", "setting": "[11]", "result": "26700 ng/mL and 99.3 µM"},
      {"measurement": "Activity", "setting": "4T1 [12]", "result": "Active"},
      {"measurement": "Tmax", "setting": "[13]", "result": 0.5, "unit": "h"},
      {"measurement": "MRT", "setting": "[14]", "result": 5.69, "unit": "h"},
      {"measurement": "AUC(0-inf)", "setting": "[15]", "result": "200000 ng·h/mL and 744 µM·h"},
      {"measurement": "half-life", "setting": "[16]", "result": 2.19, "unit": "h"},
      {"measurement": "Activity", "setting": "4T1 [17]", "result": "Active"},
      {"measurement": "Activity", "setting": "4T1 [18]", "result": "Active"},
      {"measurement": "Activity", "setting": "[19]", "result": "Non-Toxic"},
      {"measurement": "Activity", "setting": "4T1 [20]", "result": "Active"},
      {"measurement": "Activity", "setting": "[21]", "result": "Non-Toxic"},
      {"measurement": "half-life", "setting": "[22]", "result": 3.41, "unit": "h"},
      {"measurement": "Activity", "setting": "4T1 [23]", "result": "Active"},
      {"measurement": "Cmax", "setting": "[24]", "result": "8340 ng/mL and 31 µM"},
      {"measurement": "Vz/F", "setting": "[25]", "result": "2.16 (mg/kg)/(ug/ml) and 1.44 (mg/kg)/(uM)"},
      {"measurement": "AUC(0-inf)", "setting": "[26]", "result": "160000 ng·h/mL and 593 µM·h"},
      {"measurement": "MRT", "setting": "[27]", "result": 5.13, "unit": "h"},
      {"measurement": "AUC(0-t) at 24 h", "setting": "[28]", "result": "159000 ng·h/mL and 592 µM·h"},
      {"measurement": "Activity", "setting": "[29]", "result": "Non-Toxic"},
      {"measurement": "AUC(0-t) at 24 h", "setting": "[30]", "result": "28900 ng·h/mL and 107 µM·h"},
      {"measurement": "Activity", "setting": "4T1 [31]", "result": "Active"},
      {"measurement": "Activity", "setting": "4T1 [32]", "result": "Active"},
      {"measurement": "Activity", "setting": "Mus musculus", "result": "Active"},
      {"measurement": "MRT", "setting": "[33]", "result": 4.16, "unit": "h"},
      {"measurement": "Activity", "setting": "4T1 [34]", "result": "Active"},
      {"measurement": "Activity", "setting": "4T1 [35]", "result": "Active"},
      {"measurement": "Tmax", "setting": "[36]", "result": 2, "unit": "h"}
    ]}
  ]
}
